Measurements: the OligoGym collection
Where “and” joins values, the source holds several entries; their conditions need not be identical. Identical values can stand only once. After the bases stand the sugars from the 5' end (letter, count) and the backbone: PS all phosphorothioate, else s phosphorothioate and o phosphodiester by linkage. Methylation of C is not given here. e = 2'-O-(2-methoxyethyl) (MOE); k = constrained ethyl (cEt); d = 2'-deoxy (DNA)

molecular target: IRF4; settings: ASO, MM.1R, 0.074 µM

Going from “TCTATAGTGTTCCAGG (sugars kkdddddddddekeke, PS)” to TGGGACATTGGTACGG (sugars k3 d10 k3, PS), the target mRNA inhibition falls from 5% to 4%.

same assay, conditions: ASO, MM.1R, 0.222 µM

Compared with “TCTATAGTGTTCCAGG (sugars kkdddddddddekeke, PS)”, TGGGACATTGGTACGG (sugars k3 d10 k3, PS) is lower in target mRNA inhibition: 17% for the first, 2% for the second.

same assay, conditions: ASO, MM.1R, 0.666 µM

First: TCTATAGTGTTCCAGG (sugars kkdddddddddekeke, PS)
Second: TGGGACATTGGTACGG (sugars k3 d10 k3, PS)
The target mRNA inhibition of the first is higher: 37% for the first, 13% for the second.

same assay, conditions: ASO, MM.1R, 1 µM

Compared with TATCATCCGAAAAGAC (sugars k3 d10 k3, PS), TATCCTGTAGTATGAG (sugars k3 d10 k3, PS) is higher in target mRNA inhibition: 3% for the first, 42% for the second.

Going from TATTTATGAGCTTCCA (sugars k3 d10 k3, PS) to TCACTACCTGCAGCCA (sugars k3 d10 k3, PS), the target mRNA inhibition falls from 21% to 6%.

Compared with TCAGAATGTTTCGACA (sugars k3 d10 k3, PS), TCAGTTACTCACGAGC (sugars k3 d10 k3, PS) is lower in target mRNA inhibition: 6% for the first, -3% for the second.

Going from TCATGTAAAGTCTGCT (sugars k3 d10 k3, PS) to TCCAAAGGGTTCAGTG (sugars k3 d10 k3, PS), the target mRNA inhibition falls from 21% to 7%.

Going from TCCACTACCATATTGG (sugars k3 d10 k3, PS) to TCCGAGCTCGGCCCCC (sugars k3 d10 k3, PS), the target mRNA inhibition rises from -29% to -10%.

Compared with TCCTATTATAGAGCAT (sugars k3 d10 k3, PS), TCCTCCACTACCATAT (sugars k3 d10 k3, PS) is lower in target mRNA inhibition: 3% for the first, -13% for the second.

First: TCCTGTAACGCACCCG (sugars k3 d10 k3, PS)
Second: TCGAGATCATAGTGCA (sugars k3 d10 k3, PS)
The target mRNA inhibition of the first is lower: -13% for the first, 29% for the second.

Compared with TCTAACAGATAACGAG (sugars k3 d10 k3, PS), “TCTATAGTGTTCCAGG (sugars k2 d9 e3 k2, PS)” is higher in target mRNA inhibition: -3% for the first, 50% for the second.

Compared with TCTGGATGAGCTTACA (sugars k3 d10 k3, PS), TCTTTAAAATATCGCC (sugars k3 d10 k3, PS) is lower in target mRNA inhibition: 14% for the first, -45% for the second.

Going from TGACACAGGAGCCGCT (sugars k3 d10 k3, PS) to TGAGGCATACAGTGTG (sugars k3 d10 k3, PS), the target mRNA inhibition rises from 15% to 18%.

Compared with TGATGTGATAGCTGAG (sugars k3 d10 k3, PS), “TGATGTGATAGCTGAG (sugars kkdddddddddkekek, PS)” is lower in target mRNA inhibition: 59% for the first, -2% for the second.

Going from TGCTCACTAAGCTTGA (sugars k3 d10 k3, PS) to “TGCTTGAGGTTTTCCT (sugars kkkdddddddddkeke, PS)”, the target mRNA inhibition rises from 12% to 35%.

First: TGGAAACGAGAACGCA (sugars k3 d10 k3, PS)
Second: TGGCGAGTGGCGGGTA (sugars k3 d10 k3, PS)
The target mRNA inhibition of the first is higher: -7% for the first, -18% for the second.

First: TGGCTGATAATTAATC (sugars k3 d10 k3, PS)
Second: TGGGATTATATACTGG (sugars kdddddddddkekeke, PS)
The target mRNA inhibition of the first is lower: -5% for the first, 40% for the second.

Compared with “TGGGATTATATACTGG (sugars kkdddddddddekeke, PS)”, “TGGGATTATATACTGG (sugars kkdddddddddkdkdk, PS)” is lower in target mRNA inhibition: 63% for the first, 25% for the second.

Work on “TGGGATTATATACTGG (sugars kkdddddddddkekek, PS)” yielded a target mRNA inhibition of 42%.

In the case of “TCTATAGTGTTCCAGG (sugars kkdddddddddekeke, PS)”, the target mRNA inhibition is reported as 56% and 50%.

same assay, conditions: ASO, MM.1R, 2 µM

Going from “TCTATAGTGTTCCAGG (sugars kkdddddddddekeke, PS)” to TGGGACATTGGTACGG (sugars k3 d10 k3, PS), the target mRNA inhibition falls from 68% to 34%.

same assay, conditions: ASO, SK-MEL-28, 4 µM

Going from TATAGCACTCTCCTAT (sugars k3 d10 k3, PS) to TATATAGAATTAGGTG (sugars k3 d10 k3, PS), the target mRNA inhibition falls from 2% to -16%.

Compared with TATCAAAGATCTCCAC (sugars k3 d10 k3, PS), TATCAGATACACACCC (sugars k3 d10 k3, PS) is lower in target mRNA inhibition: 25% for the first, 19% for the second.

Compared with TATCAGGATCTCAAGG (sugars k3 d10 k3, PS), TATGACCCAGTGCTCT (sugars k3 d10 k3, PS) is higher in target mRNA inhibition: 6% for the first, 40% for the second.

First: TATGAGAAACGGCCTG (sugars k3 d10 k3, PS)
Second: TATTTATGCCCTCGCT (sugars k3 d10 k3, PS)
The target mRNA inhibition of the first is higher: 45% for the first, 26% for the second.

First: TCAAAGCGCACCGCAG (sugars k3 d10 k3, PS)
Second: TCAAATCTTCAACAGC (sugars k3 d10 k3, PS)
The target mRNA inhibition of the first is lower: 43% for the first, 76% for the second.

Compared with TCACACTGCCGTGATC (sugars k3 d10 k3, PS), TCACAGAGCCAACTTA (sugars k3 d10 k3, PS) is lower in target mRNA inhibition: 22% for the first, -12% for the second.

First: TCACGAGCACCTCAGA (sugars k3 d10 k3, PS)
Second: TCACGCAGTGCACCTG (sugars k3 d10 k3, PS)
The target mRNA inhibition of the first is lower: 36% for the first, 46% for the second.

Compared with TCAGAATTTAGTTAGT (sugars k3 d10 k3, PS), TCAGACAGTGCGCCCC (sugars k3 d10 k3, PS) is lower in target mRNA inhibition: 33% for the first, 26% for the second.

Compared with TCAGATGTCACTGATT (sugars k3 d10 k3, PS), TCAGCAAGTGTCTTCC (sugars k3 d10 k3, PS) is higher in target mRNA inhibition: 35% for the first, 66% for the second.

First: TCATAGCTAGTTCATT (sugars k3 d10 k3, PS)
Second: TCCAAACCTTAAGCTA (sugars k3 d10 k3, PS)
The target mRNA inhibition of the first is higher: 52% for the first, 37% for the second.

First: TCCACCTGCATCGAGA (sugars k3 d10 k3, PS)
Second: TCCAGAAAATTCAGCT (sugars k4 d8 k4, PS)
The target mRNA inhibition of the first is higher: 47% for the first, 26% for the second.

Compared with TCCAGGAAAGGCCAAG (sugars k3 d10 k3, PS), TCCAGGTGGCTCAGCA (sugars k4 d8 k4, PS) is lower in target mRNA inhibition: 49% for the first, 34% for the second.

Going from TCCCACGAAGGGCAGT (sugars k3 d10 k3, PS) to TCCCTTAGGATAATAT (sugars k3 d10 k3, PS), the target mRNA inhibition rises from 6% to 48%.

Going from TCCGGCTTGTCGATGC (sugars k3 d10 k3, PS) to TCCTATGCTGAACCCC (sugars k3 d10 k3, PS), the target mRNA inhibition falls from 41% to 36%.

Compared with TCCTCAAAGTCATTGC (sugars k4 d8 k4, PS), TCCTCTGGCCATTGTC (sugars k3 d10 k3, PS) is higher in target mRNA inhibition: 10% for the first, 41% for the second.

Going from TCGCATAGAGCCCGTC (sugars k3 d10 k3, PS) to TCGCATCCAGACCCTT (sugars k3 d10 k3, PS), the target mRNA inhibition falls from 57% to 28%.

Compared with TCGGAACTTTCCTTTA (sugars k3 d10 k3, PS), TCGGAGCTGAGGGCAG (sugars k3 d10 k3, PS) is lower in target mRNA inhibition: 33% for the first, 18% for the second.

Compared with TCTAAAGTCCCATCGA (sugars k3 d10 k3, PS), TCTAATAAATGTGCTC (sugars k3 d10 k3, PS) is higher in target mRNA inhibition: 31% for the first, 44% for the second.

First: TCTAATCCACAATCAG (sugars k3 d10 k3, PS)
Second: TCTACAGAACACAAGA (sugars k3 d10 k3, PS)
The target mRNA inhibition of the first is higher: 41% for the first, -8% for the second.

First: TCTACCTACTCCATCA (sugars k3 d10 k3, PS)
Second: TCTCCCACACCAGCCC (sugars k4 d8 k4, PS)
The target mRNA inhibition of the first is higher: 47% for the first, 25% for the second.

First: TCTCCGCCTCGGCCGC (sugars k3 d10 k3, PS)
Second: TCTGACAAGAACTGCT (sugars k3 d10 k3, PS)
The target mRNA inhibition of the first is higher: 41% for the first, 12% for the second.

Compared with TCTGAGACTACACCTA (sugars k3 d10 k3, PS), TCTGAGAGCAAATTGA (sugars k3 d10 k3, PS) is higher in target mRNA inhibition: 27% for the first, 29% for the second.

Compared with TCTGAGATGTCCAGCT (sugars k3 d10 k3, PS), TCTGAGGGTCTGGAAA (sugars k3 d10 k3, PS) is lower in target mRNA inhibition: 45% for the first, 9% for the second.

First: TCTTTGGGATTCTATA (sugars k3 d10 k3, PS)
Second: TGAACCCTTCATCAGA (sugars k3 d10 k3, PS)
The target mRNA inhibition of the first is higher: 60% for the first, 48% for the second.

Going from TGAAGCAACACGGGAA (sugars k3 d10 k3, PS) to TGAAGTGCTGTGTGGG (sugars k3 d10 k3, PS), the target mRNA inhibition falls from 60% to 57%.

First: TGACTCCATGAGGTTT (sugars k3 d10 k3, PS)
Second: TGATAAGGCACTACTT (sugars k3 d10 k3, PS)
The target mRNA inhibition of the first is higher: 65% for the first, 35% for the second.

Compared with TGATAGCTGAGCTGAT (sugars k3 d10 k3, PS), TGCAAAACCAGTACAG (sugars k3 d10 k3, PS) is lower in target mRNA inhibition: 37% for the first, 28% for the second.

First: TGCAAGCCTCATTCAC (sugars k3 d10 k3, PS)
Second: TGCACTCGCGCAAAGG (sugars k3 d10 k3, PS)
The target mRNA inhibition of the first is higher: 42% for the first, 28% for the second.

First: TGCATAACACGGTGTT (sugars k3 d10 k3, PS)
Second: TGCATCTATAAGATGT (sugars k3 d10 k3, PS)
The target mRNA inhibition of the first is higher: 38% for the first, 32% for the second.

Compared with TGCCACAACTCTCGCC (sugars k3 d10 k3, PS), TGCCGCTGTCGATCTG (sugars k3 d10 k3, PS) is higher in target mRNA inhibition: 31% for the first, 32% for the second.

First: TGCCTCTGTTAGGTGA (sugars k3 d10 k3, PS)
Second: TGCGAATGTGCCTTGT (sugars k3 d10 k3, PS)
The target mRNA inhibition of the first is lower: 34% for the first, 43% for the second.

Compared with TGCTGAACCCCACAGG (sugars k3 d10 k3, PS), TGGAAACCAGCCCTTG (sugars k3 d10 k3, PS) is higher in target mRNA inhibition: 33% for the first, 48% for the second.

First: TGGAATCTTGGCAGGG (sugars k3 d10 k3, PS)
Second: TGGAGAAACGAGCCAG (sugars k3 d10 k3, PS)
The target mRNA inhibition of the first is higher: 40% for the first, 38% for the second.

Going from TGGCAACCATTTTCAC (sugars k4 d8 k4, PS) to TGGCACAATTCTCTGA (sugars k3 d10 k3, PS), the target mRNA inhibition rises from 7% to 13%.

Going from TGGCACAGACATACCT (sugars k3 d10 k3, PS) to TGGCAGGGAGCGGCCG (sugars k3 d10 k3, PS), the target mRNA inhibition falls from 38% to 11%.

First: TGGCCCTTCTCTCACG (sugars k3 d10 k3, PS)
Second: TGGCTCATGGACATCT (sugars k3 d10 k3, PS)
The target mRNA inhibition of the first is lower: 11% for the first, 32% for the second.

First: TGGGAATCCTTAATTA (sugars k3 d10 k3, PS)
Second: TGGGACATTGGTACGG (sugars k3 d10 k3, PS)
The target mRNA inhibition of the first is lower: 12% for the first, 69% for the second.

TGGGAGTAATAGTAAA (sugars k3 d10 k3, PS) gave a target mRNA inhibition of 16%.

With TCAGTTTGTGAAGCAT (sugars k3 d10 k3, PS) the target mRNA inhibition was 75% and 89%.
With TGATGTATACCAACGA (sugars k3 d10 k3, PS) the target mRNA inhibition was 62% and 87%.
